Measured values published in patent publication US20240199628A1, “TETRAPYRROLE-BASED COMPOUNDS AND THEIR FOMULATIONS FOR ANTI-MICROBIAL THERAPY” (biolitec Unternehmensbeteiligungs II AG, priority 2021, published 2024).

Experiments:
[1] = system: CNE55-IMC (origin China, Clade CRF01_AR); test: A3R5 assay, virus inhibition, HIV-1 IMC CNE55; type: cell-based; settings: Human immunodeficiency virus 1, 96 h, read-out: inhibition compared to the virus control
Experimental: (§1) Antiviral testing was performed using temoporfin. The organisms studied were replication competent HIV-1 infectious molecular env clones (IMC) in the A3R5 assay. Following IMC were used: (I) 398-71-F6_20-IMC (origin Tansania, Clade A), (II) X2278_C2_B6-IMC (origin Spain, Clade D), (III) 25710_2.43-IMC (origin India, Clade C) and (IV) CNE55-IMC (origin China, Clade […]). Virus specific original env sequences were cloned into the HIV-1 NL4-3 backbone (gene bank ID: M19921) sequence containing a Renilla reniformis luciferase reporter gene to measure the infectivity rate.
(§2) A3R5 cells are grown in RPMI1640 supplemented with 10% fetal calf serum, 25 mM HEPES, 50 μg/ml gentamycine and 1 mg/ml geneticin. […] Within the assay the A3R5 cells were added (plus 5 μg/ml DEAE-Dextran) to the temoporfin samples in the presence of the respective amount of IMC at 50,000 RLU equivalents. After 96 hrs incubation the read out of the A3R5 assays occurred. The decrease of the luminescence compared to the virus control was measured using Victor X3 luminometer (Perkin Elmer) and allowed the detection of a possible inhibitory effect of temoporfin against HIV-1 IMCs.

[2] = system: replication competent HIV-1 infectious molecular env clones (IMC); test: A3R5 assay, all tested HIV-1 IMCs; type: cell-based; settings: two independent runs, concentrations of 2.5 μM and 1.25 μM
Experimental: as §1, §2

[3] = system: 25710_2.43-IMC (origin India, Clade C); test: A3R5 assay, virus inhibition, HIV-1 IMC 25710_2.43; type: cell-based; settings: Human immunodeficiency virus 1, 96 h, read-out: inhibition compared to the virus control
Experimental: as §1, §2

[4] = system: X2278_C2_B6-IMC (origin Spain, Clade D); test: A3R5 assay, virus inhibition, HIV-1 IMC X2278_C2_B6; type: cell-based; settings: 96 h, read-out: anti-HIV-1 effect (inhibition)
Experimental: as §1, §2

[5] = system: 398-71-F6_20-IMC (origin Tansania, Clade A); test: A3R5 assay, virus inhibition, HIV-1 IMC 398-71-F6_20; type: cell-based; settings: Human immunodeficiency virus 1, 96 h, read-out: anti-HIV-1 effect (inhibition)
Experimental: as §1, §2

Staphylococcus aureus = test: Antibacterial testing in submerged cultures (CFU/ml); type: cell-based; settings: S. aureus
Description: The organisms studied were Staphylococcus aureus DSM 1104 and DSM 11729, gram positive, Klebsiella pneumoniae, gram negative, Enterobacter aerogenes, gram negative, and Acinetobacter baumannii, gram negative. For antibacterial testing in submerged cultures cultured cells are suspended in sterile phosphate-buffered saline (PBS), sterile PBS supplemented with 10% sterile horse serum, or sterile PBS supplemented with 10% sheep blood. The bacterial suspensions are placed into sterile black well plates with clear bottoms. Concentrations of photosensitizer used in the study were as follows: 1 μM, 10 μM, 100 μM, and 1 mM. After an incubation time period of 30 minutes, the samples are exposed to white light, with a power density and irradiation time resulting in an energy fluency of about 100 J/cm^2. Control samples contained no photosensitizer and are not exposed to light. The control samples for dark toxicity are only exposed to photosensitizer without any illumination. After irradiation, the samples are removed and suspended again in the culture media. The numbers of colony-forming units (CFU/ml) are enumerated after an adequate incubation time period.

[6] = system: Staphylococcus aureus biofilms; test: Antibacterial testing of bacterial biofilms (CFU/ml); type: cell-based, Staphylococcus aureus DSM1104; settings: S. aureus biofilms (FIG. 1F)
Experimental: For antibacterial testing of bacterial biofilms the 96 pins of a transferable solid phase plates (TSP; Nunc-Immuno™ TSP with MaxiSorp™ surface) were used to generate the biofilms. The TSP plates were transferred in 96-well plates with 200 μl fresh overnight culture of Staphylococcus aureus DSM1104 cells and incubated at 35° C. about 20 hours by gentle shaking. Within this time the bacterial cells established biofilms on the pins. After removing of unattached cells by gentle washing with 250 μl of 0.9% NaCl solution the TSP plates with the biofilms on the pins were incubated with 250 μl of the photosensitizer solution or the solvent of the photosensitizer solution for control samples for 30 minutes in the dark. After incubation and another washing the pins were irradiated by white light, with a power density and irradiation time resulting in an energy fluence of about 100 J/cm^2. For the quantification of remaining attached cells, the pins were transferred into 250 μl of 0.9% NaCl solution by gentle sonication. The samples are removed, suspended in the culture media, and the numbers of colony-forming units (CFU/ml) are enumerated after an adequate incubation time period.

Row | Compound | inhibition at 2.5 µM [1] | anti-HIV activity [2] | inhibition at 2.5 µM [3] | inhibition at 2.5 µM [4] | inhibition at 2.5 µM [5] | antibacterial activity (Staphylococcus aureus; in the absence of light (FIG. 1A)) | antibacterial activity (Staphylococcus aureus; in the presence of complex media (serum) (FIG. 1A, middle)) | antibacterial activity (Staphylococcus aureus; in the presence of whole blood (FIG. 1A, right)) | antibacterial activity against biofilms [6]
1 | Oc1cccc(-c2c3nc(c(-c4cccc(O)c4)c4ccc([nH]4)c(-c4cccc(O)c4)c4nc(c(-c5cccc(O)c5)c5ccc2[nH]5)CC4)C=C3)c1 [Temoporfin, 5,10,15,20-tetrakis(3-hydroxyphenyl)chlorin] | 22% | anti-HIV activity was observed | 42% | 38% | 35% |  |  |  | 
2 | [5,10,15,20-tetrakis(3-hydroxyphenyl)porphyrinato]zinc(II) |  |  |  |  |  | high antibacterial activity | activity | activity | active
